Measurements: patent publication US20050169914A1, “Novel functions for decay accelerating factor (DAF) in inflammation” (priority 2003, published 2005)

Tested on: CD55 mRNA expression
Assay: Hypoxia-induced CD55 mRNA expression in Caco2 cells with transcriptional inhibitor
Format: cell-based, human
Conditions: DRB 10 μM
Description: First, it was determined whether hypoxia-induced CD55 results from increased transcriptional activity. Caco2 cells were subjected to hypoxia in the presence or absence of the transcriptional inhibitor 5,6-dichlorobenzimidazole riboside (DRB, 10 μM) and assessed for changes in CD55 mRNA expression. […] Consequently, increases in CD55 by hypoxia required new mRNA synthesis.

SMILES: OC[C@H]1O[C@@H](n2cnc3cc(Cl)c(Cl)cc32)[C@H](O)[C@@H]1O [DRB, 5,6-dichlorobenzimidazole riboside]
- decrease in CD55 inducibility by hypoxia: 87±7%
